According to patent publication US20150374680A1, “POCHOXIME CONJUGATES USEFUL FOR THE TREATMENT OF HSP90 RELATED PATHOLOGIES” (UNIVERSITE DE STRASBOURG, priority 2010, published 2015):

Assays:
[1] = tested on: H23; test: Proliferation assay in H23; format: cell-based; settings: Homo sapiens, NCI-H23, H23, Lung
Procedure: (§1) The compounds were dissolved in 100% DMSO to make 10 mM stock solutions. HER2+BT474 breast carcinoma cells were cultured in DMEM/F12 media, supplemented with 10% FBS. Log-phase growing BT474 cells were seeded in 96 well plates at 1.5×10E4 per well. At this cell density, BT474 is expected to reach confluency about 70-80% in 3 days. Different dilutions of compounds or vehicle in 200 μl (concentration range 0.004-10 μM) were added to the cells and incubated for 72 hours. Upon completion of the incubation, media were gently removed by suction and 100 μl of ATPlite solution (Perkin Elmer) was added in each well. Viable cells were measured by detecting luminescence generated from reaction of ATPlite solution and ATP in the cells using a 96-well microplate luminescence reader. Relative luminescence light unit is correlated to the amount of ATP in viable cells. The assays were performed in duplicates. IC50 was calculated using XLfit. The IC50 shown in Table 4 below is the average IC50 from three independent experiments.
(§2) Additional proliferation assays were performed for certain exemplified compounds using the methods similar to the one described above in multiple cancer cell lines.

[2] = tested on: H1975; test: Proliferation assay in H1975; format: cell-based; settings: Homo sapiens, NCI-H1975, H1975, Lung (EGFR mut)
Procedure: as §1, §2

[3] = tested on: A498; test: Proliferation assay in A498; format: cell-based; settings: Homo sapiens, A498, Renal (VHL mut)
Procedure: as §1, §2

[4] = tested on: NCI-H2228; test: Proliferation assay in NCI-H2228; format: cell-based; settings: Homo sapiens, NCI-H2228, Lung (EML4-ALK+)
Procedure: as §1, §2

[5] = tested on: HCC1569; test: Proliferation assay in HCC1569; format: cell-based; settings: Homo sapiens, HCC1569, Breast (Her2+; Her2i res)
Procedure: as §1, §2

[6] = tested on: A549; test: Proliferation assay in A549; format: cell-based; settings: Homo sapiens, A549, Lung
Procedure: as §1, §2

[7] = tested on: HER2+BT474 breast carcinoma cells; test: Proliferation assay in BT474 (ATPlite); format: cell-based; settings: Homo sapiens, BT-474, 72 hours, average of three independent experiments
Procedure: as §1

[8] = tested on: H460; test: Proliferation assay in H460; format: cell-based; settings: Homo sapiens, NCI-H460, H460, Lung
Procedure: as §1, §2

[9] = tested on: SKOV-3; test: Proliferation assay in SKOV-3; format: cell-based; settings: Homo sapiens, SK-OV-3, SKOV-3, Ovarian (Her2+)
Procedure: as §1, §2

[10] = tested on: N87; test: Proliferation assay in N87; format: cell-based; settings: N87, Gastric (Her2+)
Procedure: as §1, §2

[11] = tested on: PC3; test: Proliferation assay in PC3; format: cell-based; settings: Homo sapiens, PC-3, PC3, Prostate
Procedure: as §1, §2

[12] = tested on: RPM18226; test: Proliferation assay in RPM18226; format: cell-based; settings: RPM18226, Multiple myeloma
Procedure: as §1, §2

[13] = tested on: HT29; test: Proliferation assay in HT29; format: cell-based; settings: Homo sapiens, HT-29, HT29, Colon
Procedure: as §1, §2

[14] = tested on: HCT116; test: Proliferation assay in HCT116; format: cell-based; settings: Homo sapiens, HCT-116, HCT116, Colon
Procedure: as §1, §2

[15] = tested on: HCC827; test: Proliferation assay in HCC827; format: cell-based; settings: Homo sapiens, HCC827, Lung (EGFR mut)
Procedure: as §1, §2

[16] = tested on: HSP90 client protein in SKBR3 cell lines; settings: earlier work of the inventors; cited from earlier work
[17] = tested on: BT474 breast tumor cells; settings: xenografts bearing BT474 breast tumor cells; earlier work of the inventors; cited from earlier work

Compound: C[C@@H]1C/C=C/[C@@H](O)C/C=C/C(=N/OCC(=O)N2CCCCC2)Cc2cc(O)cc(O)c2C(=O)O1 [As-10a(6-S)-E]
- IC50 [1]: 88 nM
- IC50 [2]: 73 nM
- IC50 [3]: 99 nM
- IC50 [4]: 241 nM
- IC50 [5]: 377 nM
- IC50 [6]: 90 nM
- IC50 [7]: 0.058 µM
- IC50 [8]: 45 nM
- IC50 [9]: 67 nM
- IC50 [10]: 73 nM

Compound: C[C@@H]1C/C=C/[C@@H](O)C/C=C/C(=N\OCC(=O)N2CCCCC2)Cc2cc(O)cc(O)c2C(=O)O1 [As-10a(6-S)-Z]
- IC50 [1]: 28 nM
- IC50 [2]: 35 nM
- IC50 [3]: 24 nM
- IC50 [4]: 77 nM
- IC50 [5]: 100 nM
- IC50 [6]: 22 nM
- IC50 [7]: 0.026 µM
- IC50 [8]: 15 nM
- IC50 [9]: 25 nM
- IC50 [10]: 11 nM

Compound: C[C@@H]1C/C=C/[C@@H](O)C/C=C/C(=N/OCC(=O)N2CCCCC2)Cc2c(Cl)c(O)cc(O)c2C(=O)O1 [As-10b(6-S)-E]
- IC50 [1]: 36 nM
- IC50 [2]: 33 nM
- IC50 [3]: 37 nM
- IC50 [4]: 281 nM
- IC50 [5]: 187 nM
- IC50 [6]: 126 nM
- IC50 [7]: 0.027 µM
- IC50 [9]: 45 nM
- IC50 [10]: 13 nM

Compound: C[C@@H]1C/C=C/[C@@H](O)C/C=C/C(=N\OCC(=O)N2CCCCC2)Cc2c(Cl)c(O)cc(O)c2C(=O)O1 [As-10b(6-S)-Z]
- IC50 [7]: 0.824 µM

Compound: C[C@@H]1C/C=C/[C@@H](N)C/C=C/C(=N/OCC(=O)N2CCCCC2)Cc2cc(O)cc(O)c2C(=O)O1 [As-13(6S)-E]
- IC50 [1]: 41 nM
- IC50 [2]: 37 nM
- IC50 [3]: 180 nM
- IC50 [11]: 44 nM
- IC50 [4]: 87 nM
- IC50 [12]: 46 nM
- IC50 [13]: 33 nM
- IC50 [5]: 140 nM
- IC50 [14]: 76 nM
- IC50 [8]: 33 nM
- IC50 [15]: 79 nM
- IC50 [9]: 33 nM
- IC50 [10]: 7 nM

Compound: C[C@@H]1C/C=C/[C@@H](N)C/C=C/C(=N\OCC(=O)N2CCCCC2)Cc2cc(O)cc(O)c2C(=O)O1 [As-13(6S)-Z]
- IC50 [2]: 51 nM
- IC50 [3]: 166 nM
- IC50 [11]: 82 nM
- IC50 [4]: 139 nM
- IC50 [12]: 72 nM
- IC50 [13]: 92 nM
- IC50 [5]: 175 nM
- IC50 [14]: 101 nM
- IC50 [15]: 105 nM
- IC50 [10]: 12 nM

Compound: C[C@@H]1C/C=C/[C@@H](NC(=O)CS[C@@H]2OC(CO)[C@@H](O)C(O)C2O)C/C=C/C(=N/OCC(=O)N2CCCCC2)Cc2cc(O)cc(O)c2C(=O)O1 (stereo partly drawn) [Compound 5E]
- IC50 [7]: 7.84 µM

Compound: C[C@@H]1C/C=C/[C@@H](NC(=O)CS[C@@H]2OC(CO)[C@@H](O)C(O)C2O)C/C=C/C(=N\OCC(=O)N2CCCCC2)Cc2cc(O)cc(O)c2C(=O)O1 (stereo partly drawn) [Compound 5Z]
- IC50 [7]: > 10 µM

Compound: C[C@@H]1C/C=C/[C@H](NC(=O)CS[C@@H]2OC(CO)[C@@H](O)C(O)C2O)C/C=C/C(=N/OCC(=O)N2CCCCC2)Cc2cc(O)cc(O)c2C(=O)O1 (stereo partly drawn) [Compound 11E]
- IC50 [7]: 4.76 µM

Compound: C[C@@H]1C/C=C/[C@H](NC(=O)CS[C@@H]2OC(CO)[C@@H](O)C(O)C2O)C/C=C/C(=N\OCC(=O)N2CCCCC2)Cc2cc(O)cc(O)c2C(=O)O1 (stereo partly drawn) [Compound 11Z]
- IC50 [7]: > 10 µM

Compound: C[C@@H]1C/C=C/[C@@H](N)C/C=C/C(=N/OCC(=O)N2CCCCC2)Cc2cc(O)cc(O)c2C(=O)O1 [Compound 12E]
- IC50 [7]: 0.03 µM

Compound: C[C@@H]1C/C=C/[C@@H](N)C/C=C/C(=N\OCC(=O)N2CCCCC2)Cc2cc(O)cc(O)c2C(=O)O1 [Compound 12Z]
- IC50 [7]: 0.038 µM

Compound: C[C@@H]1C/C=C/[C@H](N)C/C=C/C(=NOCC(=O)N2CCCCC2)Cc2cc(O)cc(O)c2C(=O)O1 [Compound 13]
- IC50 [7]: 0.097 µM

Compound: CC(=O)N[C@H]1/C=C/C[C@@H](C)OC(=O)c2c(O)cc(O)cc2CC(=N\OCC(=O)N2CCCCC2)/C=C/C1 [Compound 14E]
- IC50 [7]: 0.223 µM

Compound: CC(=O)N[C@H]1/C=C/C[C@@H](C)OC(=O)c2c(O)cc(O)cc2CC(=N/OCC(=O)N2CCCCC2)/C=C/C1 [Compound 14Z]
- IC50 [7]: 0.27 µM

Compound: O=C1OCC/C=C/CC/C=C/C(=N/OCC(=O)N2CCCCC2)Cc2c(Cl)c(O)cc(O)c21 [pochoxime A]
- Concentration inducing client protein degradation [16]: low nM
- Effect on tumor in xenografts [17]: tumor regression

Compound: pochoxime B
- Concentration inducing client protein degradation [16]: low nM

Compound: pochoxime C
- Concentration inducing client protein degradation [16]: low nM
